Values quoted from earlier work as cited in patent US7476499B2 (priority 2006, dated 2009).

System: poliovirus virions

Cc1cc(CCCCCCCOc2ccc(C3=NCCO3)cc2)on1 [WIN-51711, Disoxaril]
mode of action on poliovirus: prevents the uncoating of the viral genome after viral cell entry
